# Data: patent publication US6706664B1, “Benzoxazole compounds, process for the preparation thereof and herbicides” (UBE Industries, Ltd., priority 1999, dated 2004)
# What was measured:
# Parameters in all cases: key: 0: normal development; 1: Less damaged; 2: Slightly damaged; 3: Moderately damaged; 4: Severely damaged; 5: All killed
# common lambsquartes [1] = test: Soil treatment test for upland field; assay type: in vivo, Chenopodium album; conditions: 500 g/ha, glass house 25° C., 3 weeks
# How it was run: (§1)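 Damage rated on a 0–5 scale (0 normal development, 5 all killed) after 3 weeks in a glasshouse at about 25 °C. Compounds applied as a water-diluted wettable powder (0.05% surfactant) sprayed at 500 g/ha onto soil surface over freshly sown seeds in alluvial Ube soil.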
# velvetleaf [2] = test: Foliar spread test for upland field; assay type: in vivo, Abutilon theophrasti; conditions: foliar spray 500 ppm, 3 weeks, rank vs non-treated
# How it was run: (§2)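 Two-week-old glasshouse seedlings on volcanic ash soil were treated by foliar spray at 500 ppm, with 0.5% surfactant in the diluent. Effects were graded visually after three weeks, from 0 for no injury to 5 for complete kill.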
# morning glory = test: Foliar spread test for upland field; assay type: in vivo, Ipomoea spps.; conditions: foliar spray 500 ppm, 3 weeks, rank vs non-treated
# How it was run: as §2
# wheat [3] = test: Soil treatment test for upland field; assay type: in vivo; conditions: 500 g/ha, glass house 25° C., 3 weeks
# How it was run: as §1
# soybean [4] = test: Soil treatment test for upland field; assay type: in vivo; conditions: 500 g/ha, glass house 25° C., 3 weeks
# How it was run: as §1
# cotton [5] = test: Soil treatment test for upland field; assay type: in vivo; conditions: 500 g/ha, glass house 25° C., 3 weeks
# How it was run: as §1
# sugar beat [6] = test: Soil treatment test for upland field; assay type: in vivo; conditions: 500 g/ha, glass house 25° C., 3 weeks
# How it was run: as §1
# solgum [7] = test: Soil treatment test for upland field; assay type: in vivo; conditions: 500 g/ha, glass house 25° C., 3 weeks
# How it was run: as §1
# Large crabgrass [8] = test: Soil treatment test for upland field; assay type: in vivo, Digitaria adscendens; conditions: 500 g/ha, glass house 25° C., 3 weeks
# How it was run: as §1
# Large crabgrass [9] = test: Foliar spread test for upland field; assay type: in vivo, Digitaria adscendens; conditions: foliar spray 500 ppm, 3 weeks, rank vs non-treated
# How it was run: as §2
# annual bluegrass [10] = test: Soil treatment test for upland field; assay type: in vivo, Poa annua; conditions: 500 g/ha, glass house 25° C., 3 weeks
# How it was run: as §1
# velvetleaf [11] = test: Soil treatment test for upland field; assay type: in vivo, Abutilon theophrasti; conditions: 500 g/ha, glass house 25° C., 3 weeks
# How it was run: as §1
# common lambsquartes [12] = test: Foliar spread test for upland field; assay type: in vivo, Chenopodium album; conditions: foliar spray 500 ppm, 3 weeks, rank vs non-treated
# How it was run: as §2
# barnyardgrass [13] = test: Soil treatment test for upland field; assay type: in vivo, Echinochloa crusgalli; conditions: 500 g/ha, glass house 25° C., 3 weeks
# How it was run: as §1
# green foxtail [14] = test: Foliar spread test for upland field; assay type: in vivo, Setaria viridis; conditions: foliar spray 500 ppm, 3 weeks, rank vs non-treated
# How it was run: as §2
# sugar beat [15] = test: Foliar spread test for upland field; assay type: in vivo; conditions: foliar spray 500 ppm, 3 weeks, rank vs non-treated
# How it was run: as §2
# solgum [16] = test: Foliar spread test for upland field; assay type: in vivo; conditions: foliar spray 500 ppm, 3 weeks, rank vs non-treated
# How it was run: as §2
# blackgrass [17] = test: Soil treatment test for upland field; assay type: in vivo, Alopecurus aegualis; conditions: 500 g/ha, glass house 25° C., 3 weeks
# How it was run: as §1
# annual bluegrass [18] = test: Foliar spread test for upland field; assay type: in vivo, Poa annua; conditions: foliar spray 500 ppm, 3 weeks, rank vs non-treated
# How it was run: as §2
# livid amaranth [19] = test: Soil treatment test for upland field; assay type: in vivo, Amaranthus lividus; conditions: 500 g/ha, glass house 25° C., 3 weeks
# How it was run: as §1
# livid amaranth [20] = test: Foliar spread test for upland field; assay type: in vivo, Amaranthus lividus; conditions: foliar spray 500 ppm, 3 weeks, rank vs non-treated
# How it was run: as §2
# barnyardgrass [21] = test: Foliar spread test for upland field; assay type: in vivo, Echinochloa crusgalli; conditions: foliar spray 500 ppm, 3 weeks, rank vs non-treated
# Description: (§3) (0: normal development, 1: Less damaged, 2: Slightly damaged, 3: Moderately damaged, 4: Severely damaged, 5: All killed).
# (§4) Wagner pots, each having an area of 1/5000 are, were packed with volcanic ash soil and then each seed of corn, soybean, cotton, wheat, solgum, sugar beat, Large crabgrass, barnyardgrass, green foxtail, blackgrass, annual bluegrass, common lambsquartes, livid amaranth, velvetleaf and morning glory was planted, covered with soil and grown in a glass house at an average temperature of […] for about 2 weeks.
# (§5) Each wettable powder of the desired compounds (I) shown in Table 1 prepared in accordance with Example 2 was diluted to 500 ppm with water containing a surfactant (0.5%) and then uniformly sprayed on the above respective plants.
# (§6) After these plants were controlled in a glass house at an average temperature of 25° C. for 3 weeks, the herbicidal effects thereof were investigated.
# (§7) The herbicidal effects were evaluated according to the evaluation method described in the above (1).
# green foxtail [22] = test: Soil treatment test for upland field; assay type: in vivo, Setaria viridis; conditions: 500 g/ha, glass house 25° C., 3 weeks
# How it was run: as §1
# blackgrass [23] = test: Foliar spread test for upland field; assay type: in vivo, Alopecurus aegualis; conditions: foliar spray 500 ppm, 3 weeks, rank vs non-treated
# Description: as §3, §4, §5, §6, §7
# wheat [24] = test: Foliar spread test for upland field; assay type: in vivo; conditions: foliar spray 500 ppm, 3 weeks, rank vs non-treated
# How it was run: as §2
# soybean [25] = test: Foliar spread test for upland field; assay type: in vivo; conditions: foliar spray 500 ppm, 3 weeks, rank vs non-treated
# How it was run: as §2
# cotton [26] = test: Foliar spread test for upland field; assay type: in vivo; conditions: foliar spray 500 ppm, 3 weeks, rank vs non-treated
# How it was run: as §2
# corn [27] = test: Foliar spread test for upland field; assay type: in vivo; conditions: foliar spray 500 ppm, 3 weeks, rank vs non-treated
# How it was run: as §2
# corn [28] = test: Soil treatment test for upland field; assay type: in vivo; conditions: 500 g/ha, glass house 25° C., 3 weeks
# How it was run: as §1
Compound,Effects Common lambsquarters (common lambsquartes [1]),Effects Velvetleaf (velvetleaf [2]),Effects Morning glory (morning glory),Effects Wheat (wheat [3]),Effects Soybean (soybean [4]),Effects Cotton (cotton [5]),Effects Sugar beat (sugar beat [6]),Effects Solgum (solgum [7]),Effects Large crabgrass (Large crabgrass [8]),Effects Large crabgrass (Large crabgrass [9]),Effects Annual bluegrass (annual bluegrass [10]),Effects Common lambsquarters (common lambsquartes [12]),Effects Barnyardgrass (barnyardgrass [13]),Effects Green foxtail (green foxtail [14]),Effects Sugar beat (sugar beat [15]),Effects Solgum (solgum [16]),Effects Annual bluegrass (annual bluegrass [18]),Effects Livid amaranth (livid amaranth [20]),Effects Barnyardgrass (barnyardgrass [21]),Effects Blackgrass (blackgrass [23]),other results
CCC(Oc1cccc(S(C)(=O)=O)c1)c1nc2cc(S(C)(=O)=O)ccc2o1 (centres unmarked) [Compound 513],5,5,3,2,2,2,5,2,5,5,5,5,4,5,5,3,5,5,3,5,Effects Velvetleaf (velvetleaf [11]): 5; Effects Blackgrass (blackgrass [17]): 3; Effects Livid amaranth (livid amaranth [19]): 5; Effects Green foxtail (green foxtail [22]): 5
CCC(Oc1ccc(Cl)c(C(F)(F)F)c1)c1nc2cc(Cl)ccc2o1 (centres unmarked) [Compound 438],–,3,4,–,–,–,–,–,–,3,–,3,–,3,5,2,3,5,1,2,Effects Wheat (wheat [24]): 2; Effects Soybean (soybean [25]): 4; Effects Cotton (cotton [26]): 3; Effects Corn (corn [27]): 2
CCC(Oc1cccc(C(F)(F)F)c1)c1nc2cc([N+](=O)[O-])ccc2o1 (centres unmarked) [Compound 178],4,3,–,0,0,0,1,0,5,3,5,4,4,2,3,2,3,4,2,2,Effects Corn (corn [28]): 0; Effects Velvetleaf (velvetleaf [11]): 1; Effects Wheat (wheat [24]): 2; Effects Soybean (soybean [25]): 3; Effects Cotton (cotton [26]): 3; Effects Corn (corn [27]): 2; Effects Blackgrass (blackgrass [17]): 3; Effects Livid amaranth (livid amaranth [19]): 5; Effects Green foxtail (green foxtail [22]): 5
CCC(Oc1ccc(F)c(C(F)(F)F)c1)c1nc2cc(I)ccc2o1 (centres unmarked) [Compound 171],2,3,5,1,0,0,5,1,5,3,5,4,2,5,3,2,3,5,1,1,Effects Corn (corn [28]): 0; Effects Wheat (wheat [24]): 2; Effects Soybean (soybean [25]): 3; Effects Cotton (cotton [26]): 4; Effects Corn (corn [27]): 2; Effects Blackgrass (blackgrass [17]): 1; Effects Livid amaranth (livid amaranth [19]): 5; Effects Green foxtail (green foxtail [22]): 5
